The OligoGym collection
HELM strings list units from the 5' end as sugar, base in round brackets, then linkage (d deoxyribose, r ribose, m 2'-O-methyl, p phosphodiester). Strings are as the collection lists them; they lack the last nucleoside at the 3' end of the tested compound. [moe] = 2'-O-(2-methoxyethyl) (MOE); [sp] = phosphorothioate linkage; [m5C] = 5-methylcytosine

Biological target: GFAP
Test: mouse, dose not given
Conditions: ASO

Substance | 3 h FOB score
RNA1{[moe](A)[sp].[moe](T)p.[moe](T)p.[moe](T)p.[moe](G)p.[moe](G)p.d([m5C])[sp].d(A)[sp].d(G)[sp].d(T)[sp].d(A)[sp].d(T)[sp].d(T)[sp].d(A)[sp].d([m5C])[sp].d([m5C])[sp].[moe](T)p.[moe]([m5C])[sp].[moe](T)}$$$$ (last 3' nucleoside missing) | 0 score 0-7
RNA1{[moe](A)[sp].[moe](T)p.[moe](T)p.[moe](T)p.[moe](G)p.[moe](T)p.d([m5C])[sp].d(T)[sp].d(T)[sp].d(T)[sp].d(A)[sp].d(T)[sp].d(T)[sp].d(T)[sp].d(T)[sp].d(T)[sp].[moe]([m5C])p.[moe]([m5C])[sp].[moe](T)}$$$$ (last 3' nucleoside missing) | 0 score 0-7
RNA1{[moe](A)[sp].[moe](T)p.[moe](T)p.[moe](T)p.[moe](G)p.d(G)[sp].d([m5C])[sp].d(A)[sp].d(G)[sp].d(T)[sp].d(A)[sp].d(T)[sp].d(T)[sp].d(A)[sp].d([m5C])[sp].[moe]([m5C])p.[moe](T)p.[moe]([m5C])[sp].[moe](T)}$$$$ (last 3' nucleoside missing) | 2 score 0-7
RNA1{[moe](A)[sp].[moe](T)p.[moe](T)p.[moe](T)p.d(A)[sp].d(T)[sp].d([m5C])[sp].d(T)[sp].d(G)[sp].d(T)[sp].d(G)[sp].d([m5C])[sp].d(T)[sp].d(T)[sp].[moe](T)p.[moe](A)p.[moe](G)p.[moe](T)[sp].[moe](G)}$$$$ (last 3' nucleoside missing) | 2 score 0-7
RNA1{[moe](A)[sp].[moe](T)p.[moe](T)p.[moe](T)p.d(G)[sp].d(G)[sp].d([m5C])[sp].d(A)[sp].d(G)[sp].d(T)[sp].d(A)[sp].d(T)[sp].d(T)[sp].d(A)[sp].[moe]([m5C])p.[moe]([m5C])p.[moe](T)p.[moe]([m5C])[sp].[moe](T)}$$$$ (last 3' nucleoside missing) | 3 score 0-7
RNA1{[moe](A)[sp].[moe](T)p.[moe](T)p.[moe](T)p.d(G)[sp].d(T)[sp].d([m5C])[sp].d(T)[sp].d(T)[sp].d(T)[sp].d(A)[sp].d(T)[sp].d(T)[sp].d(T)[sp].[moe](T)p.[moe](T)p.[moe]([m5C])p.[moe]([m5C])[sp].[moe](T)}$$$$ (last 3' nucleoside missing) | 0 score 0-7
RNA1{[moe](A)[sp].[moe](T)p.[moe](T)p.[moe]([m5C])p.[moe](A)[sp].d([m5C])[sp].d(T)[sp].d(A)[sp].d(A)[sp].d(T)[sp].d(A)[sp].d(T)[sp].d(T)[sp].[moe](T)p.[moe](A)p.[moe](A)[sp].[moe]([m5C])}$$$$ (last 3' nucleoside missing) | 0 score 0-7
RNA1{[moe](A)[sp].[moe]([m5C])p.[moe](A)p.[moe](G)p.[moe](T)p.d(T)[sp].d([m5C])[sp].d([m5C])[sp].d([m5C])[sp].d(A)[sp].d(G)[sp].d(A)[sp].d(T)[sp].d(A)[sp].d([m5C])[sp].[moe](T)p.[moe]([m5C])p.[moe]([m5C])[sp].[moe](G)}$$$$ (last 3' nucleoside missing) | 2 score 0-7
RNA1{[moe](A)[sp].[moe]([m5C])p.[moe](A)p.[moe](T)p.[moe](T)p.[moe]([m5C])p.d(A)[sp].d([m5C])[sp].d(T)[sp].d(A)[sp].d(A)[sp].d(T)[sp].d(A)[sp].d(T)[sp].d(T)[sp].d(T)[sp].[moe](A)p.[moe](A)[sp].[moe]([m5C])}$$$$ (last 3' nucleoside missing) | 0 score 0-7
RNA1{[moe](A)[sp].[moe]([m5C])p.[moe](A)p.[moe](T)p.[moe](T)p.d([m5C])[sp].d(A)[sp].d([m5C])[sp].d(T)[sp].d(A)[sp].d(A)[sp].d(T)[sp].d(A)[sp].d(T)[sp].d(T)[sp].[moe](T)p.[moe](A)p.[moe](A)[sp].[moe]([m5C])}$$$$ (last 3' nucleoside missing) | 0 score 0-7
RNA1{[moe](A)[sp].[moe]([m5C])p.[moe](A)p.[moe](T)p.d(T)[sp].d([m5C])[sp].d(A)[sp].d([m5C])[sp].d(T)[sp].d(A)[sp].d(A)[sp].d(T)[sp].d(A)[sp].d(T)[sp].[moe](T)p.[moe](T)p.[moe](A)p.[moe](A)[sp].[moe]([m5C])}$$$$ (last 3' nucleoside missing) | 0 score 0-7
RNA1{[moe](A)[sp].[moe]([m5C])p.[moe](G)p.[moe](T)p.[moe]([m5C])p.[moe](A)p.d([m5C])[sp].d(A)[sp].d(T)[sp].d(T)[sp].d([m5C])[sp].d(A)[sp].d([m5C])[sp].d(T)[sp].d(A)[sp].d(A)[sp].[moe](T)p.[moe](A)[sp].[moe](T)}$$$$ (last 3' nucleoside missing) | 0 score 0-7
RNA1{[moe](A)[sp].[moe]([m5C])p.[moe](G)p.[moe](T)p.[moe]([m5C])p.d(A)[sp].d([m5C])[sp].d(A)[sp].d(T)[sp].d(T)[sp].d([m5C])[sp].d(A)[sp].d([m5C])[sp].d(T)[sp].d(A)[sp].[moe](A)p.[moe](T)p.[moe](A)[sp].[moe](T)}$$$$ (last 3' nucleoside missing) | 0 score 0-7
RNA1{[moe](A)[sp].[moe]([m5C])p.[moe](G)p.[moe](T)p.d([m5C])[sp].d(A)[sp].d([m5C])[sp].d(A)[sp].d(T)[sp].d(T)[sp].d([m5C])[sp].d(A)[sp].d([m5C])[sp].d(T)[sp].[moe](A)p.[moe](A)p.[moe](T)p.[moe](A)[sp].[moe](T)}$$$$ (last 3' nucleoside missing) | 0 score 0-7
RNA1{[moe](A)[sp].[moe]([m5C])p.[moe](T)p.[moe](A)p.[moe](G)p.[moe](T)p.d([m5C])[sp].d(A)[sp].d(G)[sp].d([m5C])[sp].d([m5C])[sp].d(T)[sp].d(G)[sp].d(G)[sp].d(T)[sp].d(T)[sp].[moe](A)p.[moe](G)[sp].[moe]([m5C])}$$$$ (last 3' nucleoside missing) | 4 score 0-7
RNA1{[moe](A)[sp].[moe]([m5C])p.[moe](T)p.[moe](A)p.[moe](G)p.d(T)[sp].d([m5C])[sp].d(A)[sp].d(G)[sp].d([m5C])[sp].d([m5C])[sp].d(T)[sp].d(G)[sp].d(G)[sp].d(T)[sp].[moe](T)p.[moe](A)p.[moe](G)[sp].[moe]([m5C])}$$$$ (last 3' nucleoside missing) | 2 score 0-7
RNA1{[moe](A)[sp].[moe]([m5C])p.[moe](T)p.[moe](A)p.[moe](T)[sp].d([m5C])[sp].d(T)[sp].d(A)[sp].d(G)[sp].d(G)[sp].d(A)[sp].d(T)[sp].d(T)[sp].[moe](T)p.[moe](G)p.[moe](G)[sp].[moe]([m5C])}$$$$ (last 3' nucleoside missing) | 4 score 0-7
RNA1{[moe](A)[sp].[moe]([m5C])p.[moe](T)p.[moe](A)p.d(G)[sp].d(T)[sp].d([m5C])[sp].d(A)[sp].d(G)[sp].d([m5C])[sp].d([m5C])[sp].d(T)[sp].d(G)[sp].d(G)[sp].[moe](T)p.[moe](T)p.[moe](A)p.[moe](G)[sp].[moe]([m5C])}$$$$ (last 3' nucleoside missing) | 2 score 0-7
RNA1{[moe](A)[sp].[moe]([m5C])p.[moe](T)p.[moe](A)p.d(T)[sp].d([m5C])[sp].d(T)[sp].d(A)[sp].d(G)[sp].d(G)[sp].d(A)[sp].d(T)[sp].d(T)[sp].d(T)[sp].[moe](G)p.[moe](G)p.[moe]([m5C])p.[moe](A)[sp].[moe](G)}$$$$ (last 3' nucleoside missing) | 2 score 0-7
RNA1{[moe](A)[sp].[moe]([m5C])p.[moe]([m5C])p.[moe](T)p.[moe]([m5C])[sp].d([m5C])[sp].d(A)[sp].d(T)[sp].d([m5C])[sp].d(T)[sp].d([m5C])[sp].d(T)[sp].d(G)[sp].d(G)[sp].d([m5C])[sp].[moe](A)p.[moe](A)p.[moe]([m5C])[sp].[moe](A)}$$$$ (last 3' nucleoside missing) | 6 score 0-7
RNA1{[moe](A)[sp].[moe]([m5C])p.[moe]([m5C])p.[moe](T)p.[moe]([m5C])[sp].d([m5C])[sp].d([m5C])[sp].d(T)[sp].d(G)[sp].d(A)[sp].d([m5C])[sp].d([m5C])[sp].d(T)[sp].d(G)[sp].d(T)[sp].[moe]([m5C])p.[moe](T)p.[moe](A)[sp].[moe](T)}$$$$ (last 3' nucleoside missing) | 3 score 0-7
RNA1{[moe](G)[sp].[moe](A)p.[moe](A)p.[moe](T)p.[moe](G)[sp].d(G)[sp].d(T)[sp].d(G)[sp].d(A)[sp].d(T)[sp].d([m5C])[sp].d([m5C])[sp].d(G)[sp].d(G)[sp].d(T)[sp].[moe](T)p.[moe]([m5C])p.[moe](T)[sp].[moe]([m5C])}$$$$ (last 3' nucleoside missing) | 5 score 0-7
RNA1{[moe](G)[sp].[moe](A)p.[moe](A)p.[moe](T)p.[moe]([m5C])[sp].d(A)[sp].d(T)[sp].d(T)[sp].d(T)[sp].d([m5C])[sp].d(A)[sp].d(G)[sp].d(G)[sp].d(G)[sp].d([m5C])[sp].[moe]([m5C])p.[moe](A)p.[moe](A)[sp].[moe](T)}$$$$ (last 3' nucleoside missing) | 6 score 0-7
RNA1{[moe](G)[sp].[moe](A)p.[moe](G)p.[moe](A)p.[moe](T)[sp].d(A)[sp].d(T)[sp].d([m5C])[sp].d(T)[sp].d(T)[sp].d(G)[sp].d(T)[sp].d(G)[sp].[moe](A)p.[moe]([m5C])p.[moe]([m5C])[sp].[moe](T)}$$$$ (last 3' nucleoside missing) | 4 score 0-7
RNA1{[moe](G)[sp].[moe](A)p.[moe](G)p.[moe](A)p.[moe](T)[sp].d(A)[sp].d(T)[sp].d([m5C])[sp].d(T)[sp].d(T)[sp].d(G)[sp].d(T)[sp].d(G)[sp].d(A)[sp].d([m5C])[sp].[moe]([m5C])p.[moe](T)p.[moe](T)[sp].[moe](G)}$$$$ (last 3' nucleoside missing) | 4 score 0-7
RNA1{[moe](G)[sp].[moe](A)p.[moe](G)p.[moe](A)p.[moe]([m5C])[sp].d(A)[sp].d(T)[sp].d(G)[sp].d([m5C])[sp].d(A)[sp].d(T)[sp].d(A)[sp].d(T)[sp].d([m5C])[sp].d(T)[sp].[moe](A)p.[moe](G)p.[moe](T)[sp].[moe](G)}$$$$ (last 3' nucleoside missing) | 6 score 0-7
